According to US5663180A, “Substituted cyclopentenes for the treatment of inflammation” (G.D. Searle & Co., priority 1994, dated 1997):
Like-named read-outs stand apart in the source and are kept apart here. Each block holds one compound with its values, some of them ahead of it.

Legend:
COX II enzyme = details: literature report; cited from earlier work
[1] = system: hyperalgesic foot withdrawal (rat carrageenan); assay: Rat Carrageenan-induced Analgesia Test; format: in vivo, Male Sprague-Dawley rats
Procedure: Male Sprague-Dawley rats were treated as previously described for the Carrageenan Foot Pad Edema test. […] After an initial twenty minute period, thermal stimulation was begun on either the injected foot or on the contralateral uninjected foot. A photoelectric cell turned off the lamp and timer when light was interrupted by paw withdrawal. The time until the rat withdraws its foot was then measured. The withdrawal latency in seconds was determined for the control and drug-treated groups, and percent inhibition of the hyperalgesic foot withdrawal determined.

RAT PAW EDEMA = assay: Rat Carrageenan Foot Pad Edema Test; details: po, 3 h, read-out: RAT PAW EDEMA % Inhibition
HUMAN COX I = target: T1, HUMAN COX I (Homo sapiens, UniProt P23219); assay: COX I activity in vitro (PGE2 formed, ELISA, recombinant enzyme); format: biochemical; details: read-out: HUMAN COX I ID50
T1 construct: A 2.0 kb fragment containing the coding region of either human or murine COX-I or human or murine COX-II; made in house; host or cells: SF9 insect cells (recombinant baculovirus, pVL1393); CHAPS-solubilized

HUMAN COX II = target: T2, HUMAN COX II (Homo sapiens, UniProt P35354); assay: COX II activity in vitro (PGE2 formed, ELISA, recombinant enzyme); format: biochemical; details: arachidonic acid 10 μM, 10-20 min pre-incubation, read-out: HUMAN COX II ID50
T2 construct: A 2.0 kb fragment containing the coding region of either human or murine COX-I or human or murine COX-II; made in house; host or cells: SF9 insect cells (recombinant baculovirus, pVL1393); CHAPS-solubilized
T2 sequence (P35354 18-604): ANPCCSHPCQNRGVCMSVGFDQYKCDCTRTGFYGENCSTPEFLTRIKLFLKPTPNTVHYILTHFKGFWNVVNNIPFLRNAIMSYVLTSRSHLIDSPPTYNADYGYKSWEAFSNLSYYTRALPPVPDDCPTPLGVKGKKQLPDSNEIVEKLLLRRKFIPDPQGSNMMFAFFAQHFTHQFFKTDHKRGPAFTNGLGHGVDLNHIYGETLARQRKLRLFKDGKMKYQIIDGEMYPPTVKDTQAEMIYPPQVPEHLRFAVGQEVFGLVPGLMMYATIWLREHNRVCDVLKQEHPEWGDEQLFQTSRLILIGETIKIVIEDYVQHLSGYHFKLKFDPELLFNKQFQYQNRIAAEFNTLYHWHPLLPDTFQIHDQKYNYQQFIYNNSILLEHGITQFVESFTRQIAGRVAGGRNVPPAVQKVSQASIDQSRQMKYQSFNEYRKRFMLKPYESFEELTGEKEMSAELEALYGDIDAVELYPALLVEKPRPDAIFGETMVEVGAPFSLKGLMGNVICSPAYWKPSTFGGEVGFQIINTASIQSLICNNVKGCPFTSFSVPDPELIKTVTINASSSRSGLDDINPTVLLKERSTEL
Procedure: Evaluation of COX I and COX II activity in vitro
The COX II inhibition activity of the compounds of this invention illustrated in the Examples was determined by the following methods. a. Preparation of recombinant COX baculoviruses
Recombinant baculoviruses were isolated by transfecting 4 μg of baculovirus transfer vector DNA into SF9 insect cells (2x10e8) along with 200 ng of linearized baculovirus plasmid DNA by the calcium phosphate method.
Assay for COX I and COX II activity

[2] = po, 3 h, read-out: ANALGESIA % Inhibition
[3] = recombinant human COX I, arachidonic acid 10 μM, 10-20 min pre-incubation

T1 sequence (P23219 24-599): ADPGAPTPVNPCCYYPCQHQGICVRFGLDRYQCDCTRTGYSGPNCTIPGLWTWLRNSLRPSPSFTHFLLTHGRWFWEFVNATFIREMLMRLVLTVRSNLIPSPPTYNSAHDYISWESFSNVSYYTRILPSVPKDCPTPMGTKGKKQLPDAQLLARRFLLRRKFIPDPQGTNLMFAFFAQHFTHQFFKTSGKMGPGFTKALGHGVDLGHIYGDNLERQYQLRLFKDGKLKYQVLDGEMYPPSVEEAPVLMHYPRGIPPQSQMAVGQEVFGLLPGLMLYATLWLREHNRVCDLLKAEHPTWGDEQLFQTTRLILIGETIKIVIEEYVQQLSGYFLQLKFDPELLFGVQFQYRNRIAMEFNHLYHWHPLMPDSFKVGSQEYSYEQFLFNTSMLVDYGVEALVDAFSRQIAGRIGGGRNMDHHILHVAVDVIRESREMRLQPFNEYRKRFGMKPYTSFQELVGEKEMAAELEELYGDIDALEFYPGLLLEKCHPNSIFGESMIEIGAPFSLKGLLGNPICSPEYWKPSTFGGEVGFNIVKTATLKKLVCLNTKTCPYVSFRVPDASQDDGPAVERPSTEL

Structure (SMILES): COc1ccc2cc(CC(=O)O)ccc2c1 [6-methoxy-2-napthylacetic acid]
inhibition of the COX II enzyme (COX II enzyme): selectively inhibit the COX II enzyme

Structure (SMILES): CS(=O)(=O)c1ccc(C2=C(c3ccc(F)cc3)CCC2)cc1 [Example 1, 1-[2-(4-Fluorophenyl)cyclopenten-1-yl]-4-(methylsulfonyl)benzene]
inhibition in vivo at 20 mg/kg [1, 2]: 66%
inhibition in vivo at 10 mg/kg (RAT PAW EDEMA): 32%

Structure (SMILES): Cc1cc(F)ccc1C1=C(c2ccc(S(C)(=O)=O)cc2)CCC1 [Example 2, 1-[2-(4-Fluoro-2-methylphenyl)cyclopenten-1-yl]-4-(methylsulfonyl)benzene]
inhibition in vivo at 10 mg/kg (RAT PAW EDEMA): 39%

Structure (SMILES): CS(=O)(=O)c1ccc(C2=C(c3ccc(Cl)cc3)CCC2)cc1 [Example 3, 1-[2-(4-Chlorophenyl)cyclopenten-1-yl]-4-(methylsulfonyl)benzene]
inhibition in vivo at 20 mg/kg [1, 2]: 41%
inhibition in vivo at 10 mg/kg (RAT PAW EDEMA): 33%

Structure (SMILES): CS(=O)(=O)c1ccc(C2=C(c3ccc(Cl)cc3Cl)CCC2)cc1 [Example 4, 1-[2-(2,4-Dichlorophenyl)cyclopenten-1-yl]-4-(methylsulfonyl)benzene]
inhibition in vivo at 10 mg/kg (RAT PAW EDEMA): 25%

Structure (SMILES): Cc1ccc(C2=C(c3ccc(S(C)(=O)=O)cc3)CCC2)cc1 [Example 5, 1-[2-(4-Methylphenyl)cyclopenten-1-yl]-4-(methylsulfonyl)benzene]
inhibition in vivo at 10 mg/kg (RAT PAW EDEMA): 16%

Structure (SMILES): CS(=O)(=O)c1ccc(C2=C(c3ccc(C(F)(F)F)cc3)CCC2)cc1 [Example 6, 1-[2-(4-Trifluoromethylphenyl)cyclopenten-1-yl]-4-(methylsulfonyl)benzene]
inhibition in vivo at 20 mg/kg [1, 2]: 29%
inhibition in vivo at 10 mg/kg (RAT PAW EDEMA): 39%

Structure (SMILES): CSc1ccc(C2=C(c3ccc(S(C)(=O)=O)cc3)CCC2)cc1 [Example 11, 1-[2-(4-Methylthiophenyl)cyclopenten-1-yl]-4-(methylsulfonyl)benzene]
inhibition in vivo at 20 mg/kg [1, 2]: 39%

Structure (SMILES): CC1(C)CC(c2ccc(F)cc2)=C(c2ccc(S(C)(=O)=O)cc2)C1 [Example 12, 1-[2-(4-Fluorophenyl)-4,4-dimethylcyclopenten-1-yl]-4-(methylsulfonyl)benzene]
IC50 (HUMAN COX I; recombinant cox-i): 18.3 µM
inhibition in vivo at 20 mg/kg (RAT PAW EDEMA): 45%

IC50 (HUMAN COX I; [3]): 0.5 µM
Structure (SMILES): CC1(C)CC(c2ccc(F)cc2)=C(c2ccc(S(N)(=O)=O)cc2)C1 [Example 13, 4-[2-(4-Fluorophenyl)-4,4-dimethylcyclopenten-1-yl]benzenesulfonamide]
inhibition in vivo at 30 mg/kg ([1]; read-out: ANALGESIA % Inhibition, Assay performed at 30 mg/kg body weight (footnote 2), oral, 3 hours after carrageenan, read-out: […] % Inhibition): 14%
inhibition in vivo at 30 mg/kg (RAT PAW EDEMA): 34%

Structure (SMILES): CC1(C)CC(c2ccc(Cl)cc2)=C(c2ccc(S(C)(=O)=O)cc2)C1 [Example 14, 1-[2-(4-Chlorophenyl)-4,4-dimethylcyclopenten-1-yl]-4-(methylsulfonyl)benzene]
IC50 (HUMAN COX I; recombinant cox-i): 1.6 µM
inhibition in vivo at 30 mg/kg (RAT PAW EDEMA): 31%

IC50 (HUMAN COX II): < 0.1 µM
Structure (SMILES): CC1(C)CC(c2ccc(Cl)cc2)=C(c2ccc(S(N)(=O)=O)cc2)C1 [Example 15, 4-[2-(4-Chlorophenyl)-4,4-dimethylcyclopenten-1-yl]benzenesulfonamide]
inhibition in vivo at 30 mg/kg (RAT PAW EDEMA): 41%

IC50 (HUMAN COX I; [3]): 10 µM
IC50 (HUMAN COX II): 3.9 µM
Structure (SMILES): CCC1(CC)CC(c2ccc(F)cc2)=C(c2ccc(S(N)(=O)=O)cc2)C1 [Example 19, 4-[2-(4-Fluorophenyl)-4,4-diethylcyclopenten-1-yl]benzenesulfonamide]

Structure (SMILES): NS(=O)(=O)c1ccc(C2=C(c3ccc(F)cc3)CCC2)cc1 [Example 20, 4-[2-(4-Fluorophenyl)cyclopenten-1-yl]benzenesulfonamide]
IC50 (HUMAN COX I; recombinant cox-i): 4.2 µM
inhibition in vivo at 30 mg/kg [1, 2]: 44%
inhibition in vivo at 10 mg/kg (RAT PAW EDEMA): 26%

Structure (SMILES): NS(=O)(=O)c1ccc(C2=C(c3ccc(Cl)cc3)CCC2)cc1 [Example 21, 4-[2-(4-Chlorophenyl)cyclopenten-1-yl]benzenesulfonamide]
IC50 (HUMAN COX I; recombinant cox-i): 1.3 µM

Structure (SMILES): COc1ccc(C2=C(c3ccc(S(C)(=O)=O)cc3)CCC2)cc1 [Example 23, 1-[2-(4-Methoxyphenyl)cyclopenten-1-yl]-4-(methylsulfonyl)benzene]
IC50 (HUMAN COX I; recombinant cox-i): 9.9 µM
inhibition in vivo at 30 mg/kg [1, 2]: 15%
inhibition in vivo at 10 mg/kg (RAT PAW EDEMA): 22%

IC50 (HUMAN COX I; [3]): > 100 µM
IC50 (HUMAN COX II): < 0.1 µM
Structure (SMILES): CS(=O)(=O)c1ccc(C2=C(c3cccc(F)c3F)CCC2)cc1 [Example 25, 1-[2-(2,3-Difluorophenyl)cyclopenten-1-yl]-4-(methylsulfonyl)benzene]

IC50 (HUMAN COX I; [3]): 3.6 µM
Structure (SMILES): NS(=O)(=O)c1ccc(C2=C(c3cccc(F)c3F)CCC2)cc1 [Example 26, 4-[2-(2,3-Difluorophenyl)cyclopenten-1-yl]benzenesulfonamide]

Structure (SMILES): NS(=O)(=O)c1ccc(C2=C(c3ccc(Cl)c(Cl)c3)CCC2)cc1 [Example 28, 4-[2-(3,4-Dichlorophenyl)cyclopenten-1-yl]benzenesulfonamide]
inhibition in vivo at 30 mg/kg [1, 2]: 26%
inhibition in vivo at 10 mg/kg (RAT PAW EDEMA): 10%

Structure (SMILES): COc1ccc(C2=C(c3ccc(S(N)(=O)=O)cc3)CCC2)cc1F [Example 30, 4-[2-(3-Fluoro-4-methoxyphenyl)cyclopenten-1-yl]benzenesulfonamide]
IC50 (HUMAN COX I; recombinant cox-i): 8.1 µM
inhibition in vivo at 30 mg/kg (RAT PAW EDEMA): 47%

Structure (SMILES): COc1ccc(C2=C(c3ccc(S(N)(=O)=O)cc3)CCC2)cc1Cl [Example 32, 4-[2-(3-Chloro-4-methoxyphenyl)cyclopenten-1-yl]benzenesulfonamide]
inhibition in vivo at 30 mg/kg [1, 2]: 17%
inhibition in vivo at 10 mg/kg (RAT PAW EDEMA): 13%

Structure (SMILES): NS(=O)(=O)c1ccc(C2=C(c3ccc(F)c(Cl)c3)CCC2)cc1 [Example 34, 4-[2-(3-Chloro-4-fluorophenyl)cyclopenten-1-yl]benzenesulfonamide]
IC50 (HUMAN COX I; [3]): 2.1 µM
inhibition in vivo at 30 mg/kg [1, 2]: 46%
inhibition in vivo at 10 mg/kg (RAT PAW EDEMA): 37%

Structure (SMILES): CS(=O)(=O)c1ccc(C2=C(c3ccc4c(c3)OCO4)CCC2)cc1 [Example 35, 5-[2-[4-(Methylsulfonyl)phenyl]cyclopenten-1-yl]-1,3-benzodioxole]
inhibition in vivo at 30 mg/kg (RAT PAW EDEMA): 6%

Structure (SMILES): Cc1ccc(C2=C(c3ccc(S(C)(=O)=O)cc3)CCC2)cn1 [Example 36]
IC50 (HUMAN COX I; [3]): > 100 µM
inhibition in vivo at 30 mg/kg (RAT PAW EDEMA): 33%

IC50 (HUMAN COX I; [3]): > 100 µM
IC50 (HUMAN COX II): < 0.1 µM
Structure (SMILES): O=S(=O)(CF)c1ccc(C2=C(c3ccc(F)cc3)CCC2)cc1 [Example 37, 1-[2-(4-Fluorophenyl)cyclopenten-1-yl]-4-(fluoromethylsulfonyl)benzene]

Structure (SMILES): CS(=O)(=O)Nc1ccc([N+](=O)[O-])cc1OC1CCCCC1 [N-(2-cyclohexyloxy-4-nitrophenyl)methanesulfonamide]
inhibition of the COX II enzyme (COX II enzyme): inhibits the COX II enzyme
